Among the data in patent publication EP4711361A1, “NITROGEN-CONTAINING HETEROCYCLIC COMPOUND AND USE THEREOF” (Jiangsu Deyuan Pharmaceutical Co.,Ltd., priority 2023, dated 2024) are IC50 values, retold here.

One data set concerns the target T1, human CYP11B1 (Homo sapiens, UniProt P15538).
T1 construct: expressed in transfected cells; host or cells: human renal leiomyoma G402 cells (monoclonal)
T1 sequence (P15538 25-503): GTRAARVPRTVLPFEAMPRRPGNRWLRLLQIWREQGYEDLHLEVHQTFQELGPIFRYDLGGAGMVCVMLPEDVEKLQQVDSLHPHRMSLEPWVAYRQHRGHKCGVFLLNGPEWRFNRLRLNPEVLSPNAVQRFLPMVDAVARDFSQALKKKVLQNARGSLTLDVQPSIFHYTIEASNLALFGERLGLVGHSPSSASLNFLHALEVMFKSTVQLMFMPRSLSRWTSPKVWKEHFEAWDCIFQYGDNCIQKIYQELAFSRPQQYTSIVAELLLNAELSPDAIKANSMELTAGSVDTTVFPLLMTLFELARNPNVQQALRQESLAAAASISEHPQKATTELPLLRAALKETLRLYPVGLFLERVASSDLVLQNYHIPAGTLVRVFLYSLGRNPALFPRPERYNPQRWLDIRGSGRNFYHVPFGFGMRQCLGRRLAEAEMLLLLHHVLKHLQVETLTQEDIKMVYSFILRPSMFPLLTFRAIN
Put plainly: In vitro activity assay of monoclonal cells overexpressing human CYP11B1. It is filed as cell-based. To be noted: G402 cells overexpressing human CYP11B1; 1 µM 11-deoxycortisol, 16 hours; cortisol by LC-MS/MS. The procedure: The human renal leiomyoma G402 cell line overexpressing human CYP11B1 was selected to serve as a compound selectivity screening system.
Day 1: Cells were digested, and human renal leiomyoma G402 cells overexpressing CYP11B1 were resuspended to 1×10^5 cells/mL, with 100 µL seeded into a 96-well plate.
(§1) Day 3: The cell supernatant was collected and added to 200 µL of a methanol solution containing internal standards (internal standards: 35 ng/mL ketoprofen or 7.5 ng/mL carbamazepine or 5 ng/mL diphenhydramine or 10 ng/mL tolbutamide). The mixture was vortexed and centrifuged (4000×g, 4°C, 5 minutes). Then, 100 µL of the supernatant was taken and mixed with 100 µL of pure water.
Ratio = Cortisol peak area/Internal standard peak area [formula] Control activity% = (Ratiotestcompound/RatioDMSO) × 100% [formula]
(§2) "Ratio test compound" represents the Ratio values at different concentrations of the test compound.
(§3) "Ratio DMSO" represents the Ratio value without the addition of the test compound. • X = Log (compound concentration) • Y = Control activity%
The IC50 of the test compound was determined by fitting to a nonlinear regression equation using XLfit 5.5.0. Table 4: Results for in vitro activity assay of monoclonal cells overexpressing human CYP11B1

Another data set deals with T2, CYP2C9 (Homo sapiens, UniProt P11712).
T2 construct: Mixed human liver microsomes (HLM) were purchased from Corning Inc; tissue Corning Inc; host or cells: pooled (mixed) human liver microsomes
Put plainly: Human liver microsome CYP inhibition assay, CYP2C9. Type of data set: in vitro ADME. Here is the method: (§4) Experimental objective: To evaluate the inhibitory activity of the test substance on human liver microsomal cytochrome P450 isoenzymes (CYP1A2, CYP2C9, CYP2C19, CYP2D6, CYP3A4) using a 5-in-1 probe substrate for CYP isoenzymes.
(§5) Mixed human liver microsomes (HLM) were purchased from Corning Inc. (Steuben, New York, USA) and stored at temperatures below -70°C prior to use.
(§6) The working solution of the test substance, which had been diluted to a series of concentrations, was added to an incubation system containing human liver microsomes, probe substrates, and auxiliary factors of the circulatory system. A control containing solvent but no test substance served as an enzyme activity control (100%). The concentration of metabolites produced from probe substrates in the samples was determined using Liquid Chromatography-Tandem Mass Spectrometry (LC-MS/MS) method. Non-linear regression analysis of the average percentage activity of the test substance against its concentration was conducted using SigmaPlot (V.11). The IC50 values were calculated using a three-parameter or four-parameter inverse log equation. Table 10: Cytochrome P450 isoenzyme half maximal inhibitory concentration IC50 (µM)
Background: Microsomes from liver hold many membrane-bound enzymes, among them those of drug oxidation.

A further data set concerns the target T3, CYP2C19 (Homo sapiens, UniProt P33261).
T3 construct: Mixed human liver microsomes (HLM) were purchased from Corning Inc; tissue Corning Inc; host or cells: pooled (mixed) human liver microsomes
Briefly: Human liver microsome CYP inhibition assay, CYP2C19. It is filed as in vitro ADME. Here is the method: as §4, §5, §6

The next data set addresses T4, CYP2D6 (Homo sapiens, UniProt P10635).
T4 construct: Mixed human liver microsomes (HLM) were purchased from Corning Inc; tissue Corning Inc; host or cells: pooled (mixed) human liver microsomes
Briefly: Human liver microsome CYP inhibition assay, CYP2D6. Type of data set: in vitro ADME. The procedure: as §4, §5, §6

The target of the next data set is T5, CYP1A2 (Homo sapiens, UniProt P05177).
T5 construct: Mixed human liver microsomes (HLM) were purchased from Corning Inc; tissue Corning Inc; host or cells: pooled (mixed) human liver microsomes
Put plainly: Human liver microsome CYP inhibition assay, CYP1A2. Type of data set: in vitro ADME. Here is the method: as §4, §5, §6

The target of the next data set is T6, human CYP11B2 (Homo sapiens, UniProt P19099).
T6 construct: expressed in transfected cells; host or cells: human renal leiomyoma G402 cells (monoclonal)
T6 sequence (P19099 25-503): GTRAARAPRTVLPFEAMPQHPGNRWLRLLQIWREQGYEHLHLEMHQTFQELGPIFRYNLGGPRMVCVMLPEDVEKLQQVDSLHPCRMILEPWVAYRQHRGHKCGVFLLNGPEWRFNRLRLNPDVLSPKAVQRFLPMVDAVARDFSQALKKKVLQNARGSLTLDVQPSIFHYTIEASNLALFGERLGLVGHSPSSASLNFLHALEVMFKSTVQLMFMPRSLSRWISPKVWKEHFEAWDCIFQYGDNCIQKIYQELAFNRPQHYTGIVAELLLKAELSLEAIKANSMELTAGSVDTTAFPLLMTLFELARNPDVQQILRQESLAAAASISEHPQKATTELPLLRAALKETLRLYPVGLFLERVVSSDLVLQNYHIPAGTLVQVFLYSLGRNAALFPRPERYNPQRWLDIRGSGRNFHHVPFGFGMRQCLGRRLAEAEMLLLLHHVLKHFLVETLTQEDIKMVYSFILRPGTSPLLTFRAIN
Briefly: In vitro activity assay of monoclonal cells overexpressing human CYP11B2. To be noted: G402 cells overexpressing human CYP11B2; 1 µM 11-deoxycorticosterone, 16 hours; aldosterone by LC-MS/MS. It is filed as cell-based. Here is the method: The human renal leiomyoma G402 cell line overexpressing human CYP11B2 was selected to serve as a compound activity screening system. Table 1: Cell and reagent information
2) Compound details: The test compound was prepared as a 10 µM working concentration using DMSO. 3) Experimental procedure
Day 1: Cells were digested, and human renal leiomyoma G402 cells overexpressing human CYP11B2 were resuspended to 1×10^5 cells/mL, with 100 µL seeded into a 96-well plate.
as §1
Ratio = Aldosterone peak area/Internal standard peak area [formula] Control activity% = (Ratiotestcompound/RatioDMSO) × 100% [formula]
as §2, §3
The IC50 of the test compound was determined by fitting to a nonlinear regression equation using XLfit 5.5.0. Table 3: Results for in vitro activity assay of monoclonal cells overexpressing human CYP11B2

The next data set concerns the target T7, CYP3A4 (Homo sapiens, UniProt P08684).
T7 construct: Mixed human liver microsomes (HLM) were purchased from Corning Inc; tissue Corning Inc; host or cells: pooled (mixed) human liver microsomes
Put plainly: Human liver microsome CYP inhibition assay, CYP3A4. Type of data set: in vitro ADME. The procedure:
as §4, §5, §6

SMILES strings stand for the structures. Read-outs that look alike come from different tables or passages of the source. Where only a bound is given, the exact number is not on record here.

T5 sequence (P05177 whole entry): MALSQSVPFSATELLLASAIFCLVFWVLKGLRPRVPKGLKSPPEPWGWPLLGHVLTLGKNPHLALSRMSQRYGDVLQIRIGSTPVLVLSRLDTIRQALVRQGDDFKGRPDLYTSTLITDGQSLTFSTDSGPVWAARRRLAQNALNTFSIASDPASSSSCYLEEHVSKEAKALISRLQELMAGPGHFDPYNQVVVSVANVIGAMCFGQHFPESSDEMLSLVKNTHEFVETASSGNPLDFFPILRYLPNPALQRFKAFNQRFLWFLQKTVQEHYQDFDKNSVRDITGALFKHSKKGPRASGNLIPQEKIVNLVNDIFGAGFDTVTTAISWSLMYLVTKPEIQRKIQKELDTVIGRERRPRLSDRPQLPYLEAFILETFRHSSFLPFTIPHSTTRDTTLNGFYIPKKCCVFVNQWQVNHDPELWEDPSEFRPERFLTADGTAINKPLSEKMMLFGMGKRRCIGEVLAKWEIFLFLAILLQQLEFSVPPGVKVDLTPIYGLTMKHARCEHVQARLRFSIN
T4 sequence (P10635 whole entry): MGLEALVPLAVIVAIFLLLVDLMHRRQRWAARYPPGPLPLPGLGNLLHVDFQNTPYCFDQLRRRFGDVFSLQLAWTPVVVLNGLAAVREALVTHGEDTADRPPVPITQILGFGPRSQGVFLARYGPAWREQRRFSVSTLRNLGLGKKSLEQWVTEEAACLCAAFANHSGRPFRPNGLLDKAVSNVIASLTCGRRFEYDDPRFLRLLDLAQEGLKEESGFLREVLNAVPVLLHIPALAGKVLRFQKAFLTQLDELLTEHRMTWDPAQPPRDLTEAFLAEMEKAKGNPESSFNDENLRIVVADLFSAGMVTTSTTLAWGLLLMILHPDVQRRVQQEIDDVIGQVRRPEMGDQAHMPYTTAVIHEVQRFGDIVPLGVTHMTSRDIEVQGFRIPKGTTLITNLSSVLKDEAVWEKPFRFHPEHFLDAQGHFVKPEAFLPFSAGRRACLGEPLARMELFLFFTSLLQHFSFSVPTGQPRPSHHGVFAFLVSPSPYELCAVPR
T2 sequence (P11712 whole entry): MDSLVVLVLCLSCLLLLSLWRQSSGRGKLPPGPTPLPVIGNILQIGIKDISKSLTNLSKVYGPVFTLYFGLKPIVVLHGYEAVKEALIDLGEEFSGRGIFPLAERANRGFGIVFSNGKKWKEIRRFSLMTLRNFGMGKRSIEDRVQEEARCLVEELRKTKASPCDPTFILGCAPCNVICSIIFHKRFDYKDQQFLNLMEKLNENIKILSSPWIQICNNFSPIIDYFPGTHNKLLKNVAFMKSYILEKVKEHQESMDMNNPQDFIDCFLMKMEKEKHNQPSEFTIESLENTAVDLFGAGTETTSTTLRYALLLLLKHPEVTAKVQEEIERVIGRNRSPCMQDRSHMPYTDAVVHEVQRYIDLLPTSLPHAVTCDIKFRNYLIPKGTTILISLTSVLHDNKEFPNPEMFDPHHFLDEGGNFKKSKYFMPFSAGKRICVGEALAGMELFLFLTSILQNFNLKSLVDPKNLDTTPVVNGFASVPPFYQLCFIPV
T3 sequence (P33261 whole entry): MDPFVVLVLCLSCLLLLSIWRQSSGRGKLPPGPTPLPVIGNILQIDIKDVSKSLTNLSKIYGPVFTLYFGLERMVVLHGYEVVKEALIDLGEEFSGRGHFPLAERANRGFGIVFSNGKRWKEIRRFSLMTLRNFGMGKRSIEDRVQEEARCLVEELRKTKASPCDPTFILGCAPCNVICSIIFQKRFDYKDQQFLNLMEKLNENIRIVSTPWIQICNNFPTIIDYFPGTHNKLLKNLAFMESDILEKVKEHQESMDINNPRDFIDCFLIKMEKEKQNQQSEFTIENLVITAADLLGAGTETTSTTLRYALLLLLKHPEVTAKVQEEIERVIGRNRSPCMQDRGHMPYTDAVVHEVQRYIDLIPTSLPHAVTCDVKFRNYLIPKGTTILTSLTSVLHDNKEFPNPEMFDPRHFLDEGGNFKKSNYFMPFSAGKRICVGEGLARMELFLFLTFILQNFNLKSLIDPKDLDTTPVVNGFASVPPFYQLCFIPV
T7 sequence (P08684 whole entry): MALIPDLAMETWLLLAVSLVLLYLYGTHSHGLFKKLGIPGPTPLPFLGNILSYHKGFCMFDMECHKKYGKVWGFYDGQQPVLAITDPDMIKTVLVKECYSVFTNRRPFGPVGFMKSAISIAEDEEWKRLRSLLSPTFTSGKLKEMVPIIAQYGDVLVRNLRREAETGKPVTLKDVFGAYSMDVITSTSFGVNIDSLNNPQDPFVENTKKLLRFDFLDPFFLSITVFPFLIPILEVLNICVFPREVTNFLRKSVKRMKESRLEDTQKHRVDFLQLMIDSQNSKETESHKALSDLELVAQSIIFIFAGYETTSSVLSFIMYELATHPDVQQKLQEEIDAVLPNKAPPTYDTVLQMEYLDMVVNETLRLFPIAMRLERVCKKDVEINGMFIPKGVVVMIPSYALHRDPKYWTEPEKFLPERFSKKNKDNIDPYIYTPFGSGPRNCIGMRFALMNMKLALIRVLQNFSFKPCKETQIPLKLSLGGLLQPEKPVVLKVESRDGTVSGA

With `CCC(=O)NC1CCCc2c(-c3cc4ccc(=O)n(C)c4s3)cncc21` (single isomer, unassigned) [Compound 023], the IC50 against human CYP11B1 is 1.74 µM; against CYP2C9 it was over 50 µM; against CYP2C19, over 50 µM; against CYP2D6, over 50 µM; on CYP1A2, over 50 µM; at human CYP11B2 it was 0.0125 µM. Besides, the IC50 on CYP3A4 is over 50 µM.
For the molecule `CCC(=O)N[C@@H]1CCCc2c(-c3ccc4c(ccc(=O)n4C)c3)cncc21` (single isomer, unassigned) [Compound 001], the IC50 at human CYP11B1 is 2.47 µM; on CYP2C9 (mixed human liver microsomes, 5-in-1 probe substrate, read-out: Cytochrome P450 isoenzyme half maximal inhibitory concentration IC50 (µM) CYP2C9), over 50 µM; at CYP2C19 (mixed human liver microsomes, 5-in-1 probe substrate, read-out: Cytochrome P450 isoenzyme half maximal inhibitory concentration IC50 (µM) CYP2C19), over 50 µM; at CYP2D6 (mixed human liver microsomes, 5-in-1 probe substrate, read-out: Cytochrome P450 isoenzyme half maximal inhibitory concentration IC50 (µM) CYP2D6), over 50 µM; at CYP1A2 (mixed human liver microsomes, 5-in-1 probe substrate, read-out: Cytochrome P450 isoenzyme half maximal inhibitory concentration IC50 (µM) CYP1A2), over 50 µM; against human CYP11B2, 0.012 µM. Further, on CYP3A4 (mixed human liver microsomes, 5-in-1 probe substrate, read-out: Cytochrome P450 isoenzyme half maximal inhibitory concentration IC50 (µM) CYP3A4), the IC50 was over 50 µM.
On to `CCC(=O)NC1CCCc2c(-c3cc4c(s3)N(C)C(=O)CC4)cncc21` (single isomer, unassigned) [Compound 017], for which the IC50 on human CYP11B1 was 0.322 µM; at CYP2C9, 45.1 µM; against CYP2C19, over 50 µM; against CYP2D6, over 50 µM; against CYP1A2, over 50 µM; against human CYP11B2, 0.00209 µM. Besides, the IC50 on CYP3A4 is over 50 µM.
